Measurements as given in patent publication US20220228172A1 (priority 2019, published 2022).
Entries after “also recorded” stand apart in the source; their conditions may differ.

Legend:
Assay type in all cases: cell-based, vesicular stomatitis virus
[1] = test system: standard recombinant VSV without P-prot control mechanism
[2] = test system: VSV-P-prot
[3] = test system: VSV-ΔP-RFP
[4] = test system: VSV-L-Prot
[5] = test system: VSV-L-Prot; remark: listed apart in the source
[6] = test system: VSV-GFP-Prot-L (VSV-Prot-Off)
[7] = test system: VSV-P-prot; remark: listed apart in the source
[8] = test system: VSV-GP-Luc-IL12-Prot-Off
[9] = test system: VSV-GP-TM-IL12-Prot-Off
[10] = test system: VSV-GP-IL12
[11] = test system: VSV-GP-IL12-Prot-Off

## CC(C)CN(C[C@@H](O)[C@H](Cc1ccccc1)NC(=O)O[C@H]1CCOC1)S(=O)(=O)c1ccc(N)cc1 [amprenavir]
[1]
  effect of amprenavir on viral replication of standard recombinant VSV: not affected
[2]
  VSV-P-prot activity at doses above the plateau: deteriorated at higher doses
  amprenavir dose at which VSV-P-prot activity started: 100 nM
[3]
  RFP signal in VSV-ΔP-RFP infected cells: only detectable in the presence of P196PR2 and a specific HIV protease inhibitor
[4]
  VSV-L-Prot replication in presence of protease inhibitor: replicates to high titers in its presence
[5]
  amprenavir dose at which VSV-L-prot activity started: 100 nM
  amprenavir dose of maximum VSV-L-prot activity: 30 µM
[6]
  APV dose at which VSV-Prot-OFF activity started to decrease: 30 nM
  amprenavir concentration at which VSV-GFP-Prot-L activity started to decline: 1 µM
  amprenavir concentrations at which VSV-GFP-Prot-L activity was high: 0 to 300 nM
  effect on VSV-GFP-Prot-L activity (GFP expression, plaque assays): stop of virus activity
[7]
  viral gene expression (GFP signal) of VSV-P-prot: strong GFP signal within 24 hours in the presence but not in the absence
  viral replication (plaque formation) of VSV-P-prot: protease inhibitor-dependent

## COC(=O)N[C@H](C(=O)N[C@@H](Cc1ccccc1)[C@@H](O)CN(Cc1ccc(-c2ccccn2)cc1)NC(=O)[C@@H](NC(=O)OC)C(C)(C)C)C(C)(C)C [atazanavir]
[8]
  virus titer of VSV-GP-Luc-IL12-Prot-Off with and without linker: inversely correlated
[9]
  virus titer of VSV-GP-TM-IL12-Prot-Off (-w/ol, -fl): inversely correlated
[10]
  virus titer of VSV-GP-IL12: uneffected

## CC(C)(C)NC(=O)[C@@H]1CN(Cc2cccnc2)CCN1C[C@@H](O)C[C@@H](Cc1ccccc1)C(=O)N[C@H]1c2ccccc2C[C@H]1O [indinavir]
[4]
  VSV-L-Prot replication in presence of protease inhibitor: replicates to high titers in its presence
[7]
  viral gene expression (GFP signal) of VSV-P-prot: facilitated
  viral replication (plaque formation) of VSV-P-prot: facilitated

## Cc1cccc(C)c1OCC(=O)N[C@@H](Cc1ccccc1)[C@@H](O)C[C@H](Cc1ccccc1)NC(=O)[C@H](C(C)C)N1CCCNC1=O [lopinavir]
[7]; 10 μM
  regulation of VSV-P-prot (data not shown): shown to regulate VSV-P-prot

## CC(C)(C)NC(=O)[C@@H]1C[C@@H]2CCCC[C@@H]2CN1C[C@@H](O)[C@H](Cc1ccccc1)NC(=O)[C@H](CC(N)=O)NC(=O)c1ccc2ccccc2n1 [saquinavir]
[11]
  virus titer of VSV-GP-IL12-Prot-Off with and without linker: dependent on the presence and concentration; also recorded: inversely correlated
[8]
  IL12 expression in supernatant (ELISA): inversely correlated
[4]
  VSV-L-Prot replication in presence of protease inhibitor: replicates to high titers in its presence
[6]
  inhibition of VSV-GFP-Prot-L replication: even stronger inhibition of virus replication than amprenavir; also recorded: strongest suppression of viral replication
[7]
  viral gene expression (GFP signal) of VSV-P-prot: facilitated
  viral replication (plaque formation) of VSV-P-prot: facilitated
